Results on 18 compounds are retold here after ChEMBL document CHEMBL1141141, “Novel, highly potent adenosine deaminase inhibitors containing the pyrazolo[3,4-d]pyrimidine ring system. Synthesis, structure-activity relationships, and molecular modeling studies” (J Med Chem, 2005).

pKi: −log10 of the molar value.

Test [1] concerns the target T1, Adenosine deaminase (Bos taurus, UniProt P56658).
T1 sequence (P56658 whole entry): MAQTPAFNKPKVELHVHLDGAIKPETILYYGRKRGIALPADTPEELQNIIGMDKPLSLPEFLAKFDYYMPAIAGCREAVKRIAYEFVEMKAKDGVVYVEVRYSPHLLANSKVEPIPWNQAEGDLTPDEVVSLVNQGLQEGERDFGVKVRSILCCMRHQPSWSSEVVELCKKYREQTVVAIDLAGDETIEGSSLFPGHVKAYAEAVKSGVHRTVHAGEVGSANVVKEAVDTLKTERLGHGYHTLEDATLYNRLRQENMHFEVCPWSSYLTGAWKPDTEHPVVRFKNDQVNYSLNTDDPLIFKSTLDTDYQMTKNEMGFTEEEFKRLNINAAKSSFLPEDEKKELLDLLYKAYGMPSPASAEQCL
The test is described as follows: Inhibitory constant against bovine spleen Adenosine deaminase at >10e-5; n.a.=not active. It counts as tissue-based.

Test [2] has as its target T1, Adenosine deaminase.

Turning to `CCCCCCCCCCCN1N=CC2C(N)=NC=NC21` (stereo not drawn), at Adenosine deaminase [1], the Ki entry is given as “Not Active”.
For `NC1=NC=NC2C1C=NN2CCc1ccccc1` (stereo not drawn), at Adenosine deaminase [1], the Ki result is “Not Active”.
By pKi is commonly meant the Ki on a negative log10 scale, so that one unit is a factor of ten. The low end stands for a high Ki, the high end for a low Ki. `CCCCCCCC[C@H](O)Cn1cc2c(N)ncnc2n1` gave a pKi at Adenosine deaminase [2] of 7.43.
`CCCCCCCCC(O)Cn1cc2c(N)ncnc2n1` (stereo not drawn) showed a pKi on Adenosine deaminase [2] of 9.55.
With `CCCCCCCCCCn1cc2c(N)nc(-c3ccccc3)nc2n1`, the Ki result at Adenosine deaminase [1] is recorded as “Not Active”.
As for `CCCCCCn1cc2c(N)ncnc2n1`, on Adenosine deaminase [1], the Ki entry is “Not Active”.
`Nc1ncnc2nn(Cc3ccccc3)cc12`: on Adenosine deaminase [1], the Ki result was “Not Active”.
Turning to `NC1=NC=NC2C1C=NN2Cc1ccccc1` (stereo not drawn), the Ki result at Adenosine deaminase [1] is “Not Active”.
`CCCCCCC(O)CN1N=CC2C(N)=NC=NC21` (stereo not drawn): the Ki result at Adenosine deaminase [1] is on record as “Not Active”.
At Adenosine deaminase [2], `CCCCCCCC[C@@H](O)Cn1cc2c(N)ncnc2n1` had a pKi of 10.28.
On to `CCCCCCCCCCCCn1cc2c(N)ncnc2n1`, for which the Ki entry at Adenosine deaminase [1] is “Not Active”.
On to `Nc1ncnc2nn(CCc3ccccc3)cc12`, for which the Ki result at Adenosine deaminase [1] is “Not Active”.
Take `CCCCCCCCCCn1cc2c(NC(C)=O)ncnc2n1`: the Ki result at Adenosine deaminase [1] is “Not Active”.
On to `CCCCCCC(O)Cn1cc2c(N)ncnc2n1` (stereo not drawn), for which the pKi on Adenosine deaminase [2] is 9.00.
Compound `CCCCCCC(C(C)O)N1N=CC2C(N)=NC=NC21` (stereo not drawn) gave a pKi at Adenosine deaminase [2] of 7.18.
`NC1=NC=NC2C1C=NN2CCO` (stereo not drawn) showed a pKi on Adenosine deaminase [2] of 5.34.
For the compound `CCCCCCCCCCN1N=CC2C(N)=NC=NC21` (stereo not drawn), on Adenosine deaminase [1], the Ki entry was “Not Active”.
As to `CCCCCCCCCCCCN1N=CC2C(N)=NC=NC21` (stereo not drawn), at Adenosine deaminase [1], the Ki entry is on record as “Not Active”.
